Where two headings read alike, the source gives them in different places.
What was measured:
[1] = test system: Patients with Multiple Indications; assay: Treatment of patients with multiple indications by injection; pain level x/10; assay type: in vivo, human; conditions: for Pain level After: 2 cc injected
Patients with Arthritis = assay: Treatment of patients with arthritis by injection at or near acupuncture points; pain level x/10; assay type: in vivo, human
Description: Treatment of Patients with Arthritis
(i) A patient presented with a 5/10 pain from severe rheumatoid arthritis.
(ii) A patient presented with an 8/10 pain from severe rheumatoid arthritis.
(iii) A patient presented with 8/10 pain from severe rheumatoid arthritis with diffuse joint stiffness, swelling and tenderness.
(i) A patient presented with a pain level of 10/10 from cervical strain due to seronegative rheumatoid arthritis.
(ii) A patient presented with a 7.5/10 pain globally from a seronegative arthritis (unspecified).
A patient presented with a 5/10 pain from bilateral post-traumatic subtalar arthritis.

[2] = test system: Patients with Back, Shoulder, Leg Pain; assay: Treatment of patients with back, shoulder, leg pain by injection; pain level x/10; assay type: in vivo, human
Description: (iv) A patient presented initially with 9/10 mechanical low back pain.
(v) A patient with an L5 radiculopathy complained of a 6/10 low back pain which was unrelieved by trigger point injections, sacroiliac injections and epidurals.
(vii) A patient presented with a 8/10 back pain from lumbar facet arthropathy.
(viii) A patient presented with an 8/10 back pain with radiation down leg from lumbar radiculopathy.
(xii) A patient presented with a 9/10 low back pain and 8/10 shoulder and neck pain.
(ii) A patient presented with a 4/10 pain due to sacroiliac strain.
(ii) A patient presented with a 4/10 neck pain from cervical degenerative disc disease.
(iii) A patient presented with a 9/10 pain globally from cervical spondylotic myelopathy.

human patients [3] = assay: Treatments with saline; pain level x/10; assay type: in vivo; conditions: general observation in parenthesis
Description: (i) A patient presented with a 2/10 rotator cuff tendinopathy.
(ii) 5/10 sacroiliac strain.
(iv) A patient presented with a 6/10 pain globally from severe systemic lupus erthymatosis (SLE).
(v) A patient presented with a 7/10 pain right medial knee pain from pes anserine bursitis.

human patients [4] = assay: Treatment with epinephrine or Restylane at specific influential points, also in combination with magnets; pain level x/10; assay type: in vivo
Description: (i) A patient presented with a 6/10 left ankle pain from gout.
(ii) A patient presented with an 8/10 pain and stiffness from Parkinson's disease.
(iii) A patient presented with a 5/10 neck pain and stiffness.
(iv) A patient presented with a 5/10 neck and upper back pain from syringomyelia.
(v) A patient presented with a 5.8/10 right shoulder pain from rotator cuff tendinopathy.
(vi) A patient presented with a 2/10 shoulder pain from a rotator cuff tendinopathy.
(vii) A patient presented with a 10/10 frontal sinus headache which was present for over 1 week.
(viii) A patient presented with a 4/10 tension headache over the temples and neck with photophobia on which is present 2-3 times a week on average.
(ix) A patient presented with 10/10 pain from bilateral tarsal tunnel syndrome.
(x) A patient with chronic radicular left leg pain 6/10.
(i) A patient presented with a 5/10 pain globally especially in the low back.
(ii) A patient presented with a 5/10 pain in the mid back who had never had acupuncture before.
(iii) A patient presented with a 10/10 pain in an amputee with a compound fracture of their femur.
(i) A patient presented with common peroneal neuropathy with a pain level of 9/10.
(ii) Patient with 9/10 back pain from sacroilitis.

human patients [5] = test system: human patients
human patients [6] = test system: human patients; remark: listed apart in the source
Description: (i) 10/10 pain from sacroilitis.
(ii) 5/10 pain from trochanteric bursitis.
(iii) 7/10 pain from Morton's neuroma.
(iv) 5/10 pain from lateral epicondylitis.

C[C@]12C=CC(=O)C=C1CC[C@H]1[C@@H]3C[C@@H](O)[C@](O)(C(=O)CO)[C@@]3(C)C[C@H](O)[C@@]12F [triamcinolone]
pain after injection ([1]; cervical stenosis 8/10 and lumbosacral strain 7/10, triamcinolone only into GH joints bilaterally): complete relief

CCN(CC)CC(=O)Nc1c(C)cccc1C [lidocaine]
pain after injection (Patients with Arthritis; 6/10 shoulder pain (glenohumeral arthritis) and 7/10 low back pain (lumbar stenosis), 2 cc into GH joints bilaterally): complete pain relief | pain after injection (Patients with Arthritis; 9/10 elbow pain (radiohumeral arthritis) and 10/10 mechanical low back pain, 2 cc into GH joints near Lu 1 bilaterally): complete relief | pain after injection (Patients with Arthritis; bilateral post-traumatic subtalar arthritis, 5/10 before, 2 cc bilaterally s.c. over GH joints near Lu 1): disappearance of all pain | pain level after injection (Patients with Arthritis; cervical strain due to seronegative rheumatoid arthritis, 10/10 before, 1 cc bilaterally s.c. over GH joints): 4/10 | pain after injection (Patients with Arthritis; right glenohumeral osteoarthritis 9/10 and 8/10 low back pain (sacroiliac strain), 2 ccs bilaterally into GH joints, agent not given, heading: Injection of Lidocaine): total relief | duration of pain relief (Patients with Arthritis; same patient as E13): 3 days | duration of pain relief (Patients with Arthritis; same patient as E15): 1 week | pain level after injection (Patients with Arthritis; same patient, 4/10 before, another 2 cc lidocaine bilaterally s.c. over GH joints): 3/10 | pain after injection (Patients with Arthritis; seronegative arthritis (unspecified), 7.5/10 globally before, 2 cc bilaterally s.c. over GH joints): disappearance of all pain | pain after injection (Patients with Arthritis; severe RA, s.c. over GH joints bilaterally): resolution of all pain | pain after injection (Patients with Arthritis; severe rheumatoid arthritis, 5/10 before, 2 cc bilaterally s.c. over glenohumeral (GH) joints near Lu 1): disappearance of all pain and return of mobility | pain level after injection ([2]; 4/10 neck pain from cervical degenerative disc disease, 2 cc bilaterally s.c. over GH joints): 2/10 | pain after injection ([2]; 4/10 pain due to sacroiliac strain, 2 cc bilaterally s.c. over GH joints): disappearance of all pain | pain after injection ([2]; 5/10 back pain due to rupture of the annulus, 2 cc 1% lidocaine into GH joints bilaterally): no relief | pain level after injection ([2]; 6/10 mechanical low back pain before, 2 cc bilaterally into GH joints): about 3/10 | pain relief ([2]; 6/10 mechanical low back pain, 2 cc bilaterally into GH joints): about 50% | pain level after injection ([2]; 7/10 low back pain due to SI strain before, 2 cc into GH joints bilaterally): 4/10 | pain level after injection ([2]; 8/10 back pain with radiation down leg, lumbar radiculopathy, 2 cc bilaterally s.c. over GH joints): 1/10 | pain level after injection ([2]; 9/10 mechanical low back pain before, 2 cc bilaterally into GH joints, agent not given, heading: Injection of Lidocaine): 4/10 | pain after injection ([2]; lumbar facet arthropathy, s.c. over GH joints bilaterally): resolution of pain | follow-up of pain relief ([2]; same patient as E28): still pain free one week later | other effects stated by patient ([2]; same patient as E34): felt more awake, alert and had a sense of well-being | shoulder pain level after injection ([1]; 6/10 bilateral shoulder pain, glenohumeral arthritis, 4 ccs into GH joints bilaterally): 1/10 | pain relief ([1]; 6/10 shoulder pain (bilateral rotator cuff tendinopathy) and 6/10 low back pain (lumbar spinal stenosis), 2 cc bilaterally into GH joints): about 50% | pain level after injection, right side of the body ([1]; 10/10 post surgical pain from tracheostomy and 6/10 coccygodynia, 2 cc s.c. bilaterally over GH joint): 2/10 | Pain level After ([1]; Cervical spondylotic myelopathy, Before 9/10): 1/10 | Pain level After ([1]; Chronic pelvic pain of non menstrual origin, Before 6/10): 0 | Pain level After ([1]; Dermatomyositis, Before 6/10): 2/10 | Pain level After ([1]; Knee pain, Before 5/10): 0 | Pain level After ([1]; Lumbar radiculopathy, herniated disk and scatia, Before 8/10): 0 | Pain level After ([1]; Multiple Sclerois with pain in legs, Before 7/10): 0 | Pain level After ([1]; Peptic Ulcer with gnawing epigastric pain, Before 8/10): 0 | Pain level After ([1]; Plantar Fasciitis, Before 6/10): 0 | Pain level After ([1]; Reflex sympathetic dystophy, Before 6/10): 0 | other effects reported by patient ([1]; same patient): felt more awake, had a better mood, and could breathe easier | pain level after injection ([1]; same patient as E44, 6/10 before): 3/10 | low back pain level after injection ([1]; same patient, 6/10 low back pain, lumbar spinal stenosis, 4 ccs): 2/10 | pain after further injection ([1]; same patient, another 2 cc over only the left GH joint): disappearance of all pain | effect of unilateral injection over the GH joint (human patients [3]): seems to provide analgesia on the opposite side of the body | pain after injection (human patients [4]; 9/10 back pain from sacroilitis, 0.1 cc lidocaine 2% bilaterally s.c. over sacroiliac joints (B 47, B 23)): disappearance of all back pain | pain after therapeutic magnets put over the sites of injection (human patients [4]; same patient): again disappeared | time after which the pain started to come back (human patients [4]; same patient): 2 days | drooling after injection (human patients [5]; excessive drooling (sialorrhea), 0.1 cc lidocaine 2% near Li 4): cessation of drooling | effect on sleepiness (human patients [5]; narcolepsy, falling asleep in the office, 0.1 cc 2% lidocaine near Li 4): noticeably woke patient up | duration of cessation of drooling (human patients [5]; same patient): 2 weeks | duration of effect (human patients [5]; same patient): lasted throughout the day | pain after injection (human patients [6]; 5/10 pain from lateral epicondylitis, 0.1 cc 2% lidocaine s.c. over lateral epicondyle): complete pain relief | pain after injection (human patients [6]; 5/10 pain from trochanteric bursitis, 0.1 cc 2% lidocaine bilaterally s.c. over trochanteric bursae): complete pain resolution | symptoms after injection (human patients [6]; 7/10 pain from Morton's neuroma, 0.1 cc 2% lidocaine s.c. on dorsal foot between metatarsal heads): complete resolution of symptoms | pain after injection (human patients [6]; 10/10 pain from sacroilitis, 0.1 cc 2% lidocaine s.c. over the sacroiliac joints): immediate pain cessation and return to full mobility | duration of complete pain relief (human patients [6]; same patient): 1 days | duration of complete pain resolution (human patients [6]; same patient): 3 weeks | duration of complete resolution of symptoms (human patients [6]; same patient): 2 weeks | pain relief still complete at time later (human patients [6]; same patient, magnets put over the two injection sites afterwards): ≥ 10 days

— patent US20100042137A1, “ACUPUNCTURE AND ACUPRESSURE THERAPIES” (priority 2008, published 2010)
